Legend:
Uromyces appendiculatus = assay: Uromyces test (bean)/protective; type: in vivo; conditions: bean plants, protective spray, application rate 100 ppm, evaluation 10 days after inoculation
Protocol: (§1) To produce a suitable preparation of active compound, 1 part by weight of active compound is mixed with the stated amounts of solvents and emulsifier, and the concentrate is diluted with water to the desired concentration.
(§2) To test for protective activity, young plants are sprayed with the active compound preparation at the stated application rate. After the spray coating has dried on, the plants are inoculated with an aqueous spore suspension of the bean rust pathogen Uromyces appendiculatus and then remain in an incubation cabin at about 20° C. and 100% relative atmospheric humidity for 1 day. The plants are then placed in a greenhouse at about 21° C. and a relative atmospheric humidity of about 90%.
(§3) Evaluation is carried out 10 days after the inoculation. 0% means an efficacy which corresponds to that of the control, whereas an efficacy of 100% means that no infection is observed.

[1] = logP determination by HPLC on reverse-phase column (C 18), EEC Directive 79/831 Annex V.A8; type: physicochemical; conditions: reverse-phase HPLC column (C 18), pH 2.3, HPLC, 0.1% aqueous phosphoric acid/acetonitrile, 43° C.
Protocol: The logP values given in the Tables and Preparation Examples above are determined in accordance with EEC Directive 79/831 Annex V.A8 by HPLC (High Performance Liquid Chromatography) on a reverse-phase column (C 18). Temperature: 43° C.
The determination is carried out in the acidic range at pH 2.3 using the mobile phases 0.1% aqueous phosphoric acid and acetonitrile; linear gradient from 10% acetonitrile to 90% acetonitrile.
Calibration is carried out using unbranched alkan-2-ones (having 3 to 16 carbon atoms) with known logP values (determination of the logP values by the retention times using linear interpolation between two successive alkanones).

Puccinia recondita = assay: Puccinia test (wheat)/protective; type: in vivo; conditions: wheat plants, protective spray, application rate 1000 ppm, evaluation 10 days after inoculation
Protocol: To produce a suitable preparation of active compound, 1 part by weight of active compound is mixed with the stated amounts of solvent and emulsifier, and the concentrate is diluted with water to the desired concentration.
To test for protective activity, young plants are sprayed with the active compound preparation at the stated application rate. After the spray coating has dried on, the plants are sprayed with a conidia suspension of Puccinia recondita. The plants remain in an incubation cabin at 20° C. and 100% relative atmospheric humidity for 48 hours.
The plants are then placed in a greenhouse at a temperature of about 20° C. and a relative atmospheric humidity of 80% to promote the development of rust pustules.
as §3

Venturia inaequalis = assay: Venturia test (apple)/protective; type: in vivo; conditions: apple plants, protective spray, application rate 100 ppm, evaluation 10 days after inoculation
Protocol: as §1
as §2, with “conidia” for “spore”, “apple scab” for “bean rust”, “Venturia inaequalis” for “Uromyces appendiculatus”
as §3

Botrytis cinerea = assay: Botrytis test (bean)/protective; type: in vivo; conditions: bean plants, protective spray, application rate 100 ppm, evaluation 2 days after inoculation
Protocol: as §1
To test for protective activity, young plants are sprayed with the active compound preparation at the stated application rate. After the spray coating has dried on, 2 small pieces of agar colonized by Botrytis cinerea are placed onto each leaf. The inoculated plants are placed in a dark chamber at about 20° C. and 100% relative atmospheric humidity.
The size of the infected areas on the leaves is evaluated 2 days after the inoculation. 0% means an efficacy which corresponds to that of the control, whereas an efficacy of 100% means that no infection is observed.

Q: Which Efficacy in % (Uromyces appendiculatus) does the source give for `COC(=O)c1ccc(-c2cc(F)ccc2NC(=O)c2cn(C)nc2C(F)(F)F)cc1F` [drawing 32] here?
A: Its Efficacy in % is 93%.

Q: For `COC(=O)c1ccc(-c2cc(F)ccc2NC(=O)c2cn(C)nc2C(F)(F)F)cc1F` [No. 1, methyl 3,5′-difluoro-2′-({[1-methyl-3-(trifluoromethyl)-1H-pyrazol-4-yl]carbonyl}amino)biphenyl-4-carboxylate], which chromatographic logP ([1]; compounds of formula (I)) is on record?
A: Its chromatographic logP is 2.64.

Q: For `COC(=O)c1ccc(-c2cc(F)ccc2N)cc1F` [No. 9 (III), methyl 2′-amino-3,5′-difluorobiphenyl-4-carboxylate], which chromatographic logP ([1]; starting materials of formula (III)) is on record?
A: The chromatographic logP was 2.73.

Q: With `COC(=O)c1ccc(-c2cc(F)ccc2NC(=O)c2cn(C)nc2C(F)F)cc1F` [drawing 35] as the molecule, how does the Efficacy in % (Puccinia recondita) read?
A: The Efficacy in % was 90%.

Q: For `COC(=O)c1ccc(-c2cc(F)ccc2NC(=O)c2cn(C)nc2C(F)F)cc1F` [drawing 33], which Efficacy in % (Uromyces appendiculatus) is on record?
A: Its Efficacy in % is 78%.

Q: Which Efficacy in % (Venturia inaequalis) does the source give for `COC(=O)c1ccc(-c2cc(F)ccc2NC(=O)c2cn(C)nc2C(F)F)cc1F` [drawing 30] here?
A: The Efficacy in % was 71%.

Q: Which Efficacy in % (Botrytis cinerea) does the source give for `COC(=O)c1ccc(-c2cc(F)ccc2NC(=O)c2cn(C)nc2C(F)(F)F)cc1F` [drawing 31] here?
A: Its Efficacy in % is 78%.

Q: With `COC(=O)c1ccc(-c2cc(F)ccc2NC(=O)c2cn(C)nc2C(F)(F)F)cc1F` [drawing 34] as the molecule, how does the Efficacy in % (Puccinia recondita) read?
A: The Efficacy in % was 100%.
